Measurements published in patent publication US20260200919A1, “SUBSTITUTED AMINOPYRIDINE COMPOUNDS AND METHODS OF TREATING DISEASE USING SAME” (Atavistik Bio, Inc., priority 2023, published 2026).

Assays:
[1] = biological target: T1, human recombinant kinase full-length wildtype AKT1 (Homo sapiens, UniProt P31749); test: AKT1 kinase assay (wildtype, TR-FRET, Lance); format: biochemical; settings: 0.6 nM wildtype AKT1, 50 nM Ulight-CREBtide, either 50 μM ATP or 2 mM ATP (not specified which), 60 min at RT
T1 construct: Purified human recombinant kinase full-length wildtype AKT1 was expressed in insect cells; made in house; host or cells: insect cells
Summary of the method: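 Insect-cell-expressed AKT1, activated in vitro by PDPK1, was used at 0.6 nM with 50 nM Ulight-CREBtide and 50 μM or 2 mM ATP in 50 mM HEPES pH 7.5, 1% DMSO, over a 10-point dose response.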

[2] = biological target: T2, human recombinant kinase full-length AKT1 E17K (Homo sapiens, UniProt P31749, E17K); test: AKT1 E17K kinase assay (TR-FRET, Lance); format: biochemical; settings: 0.6 nM AKT1 E17K, 50 nM Ulight-CREBtide, either 50 μM ATP or 2 mM ATP (not specified which), 60 min at RT
T2 construct: Purified human recombinant kinase full-length AKT1 E17K was expressed in insect cells; made in house; host or cells: insect cells
Summary of the method: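 Full-length human AKT1 E17K (insect cell-expressed, PDPK1-activated; 0.6 nM) with 50 nM ULight-CREBtide in HEPES pH 7.5 with MgCl2 and DTT. ATP at 50 μM or 2 mM, 1% DMSO, 10-point dose response, 60 min at RT.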

T1 sequence (P31749 whole entry): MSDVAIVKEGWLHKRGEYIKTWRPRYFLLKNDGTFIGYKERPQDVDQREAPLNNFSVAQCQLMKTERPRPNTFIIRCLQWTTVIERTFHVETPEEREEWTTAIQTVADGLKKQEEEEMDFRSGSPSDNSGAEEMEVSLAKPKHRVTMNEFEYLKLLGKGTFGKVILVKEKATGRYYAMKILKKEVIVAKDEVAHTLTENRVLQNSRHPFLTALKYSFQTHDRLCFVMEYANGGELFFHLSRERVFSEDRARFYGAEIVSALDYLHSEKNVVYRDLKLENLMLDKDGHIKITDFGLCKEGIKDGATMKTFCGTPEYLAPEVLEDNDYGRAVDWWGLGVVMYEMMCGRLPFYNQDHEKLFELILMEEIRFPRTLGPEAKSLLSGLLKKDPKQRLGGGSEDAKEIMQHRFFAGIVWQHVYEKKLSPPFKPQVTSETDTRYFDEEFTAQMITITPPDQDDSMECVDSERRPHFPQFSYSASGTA
T2 sequence (P31749 whole entry E17K): as the sequence (P31749 whole entry) above, with E17K counted along it

IC50 [1] [µM] | IC50 [2] [µM] | SMILES
< 0.5 | 0.05 to 0.2 | Nc1ncccc1-c1nc2ccc(-c3ccccc3)nc2n1-c1ccc(CNC(=O)c2ccc(CC(=O)O)cc2)cc1 [Compound 30, 2-(4-((4-(2-(2-aminopyridin-3-yl)-5-phenyl-3H-imidazo[4,5-b]pyridin-3-yl)benzyl)carbamoyl)phenyl)acetic acid]
< 0.5 | > 0.5 | Cc1cc(C(=O)O)ccc1NC(=O)c1ccc(-n2c(-c3cccnc3N)nc3ccc(-c4ccccc4)nc32)cn1 [Compound 178, 4-(5-(2-(2-aminopyridin-3-yl)-5-phenyl-3H-imidazo[4,5-b]pyridin-3-yl)picolinamido)-3-methylbenzoic acid]
< 0.5 | 0.2 to 0.5 | Nc1ncccc1-c1nc2ccc(-c3cccnc3)nc2n1-c1ccc(CNC(=O)c2ccc(CC(=O)O)cc2)cc1 [Compound 95, 2-(4-((4-(2-(2-aminopyridin-3-yl)-5-(pyridin-3-yl)-3H-imidazo[4,5-b]pyridin-3-yl)benzyl)carbamoyl)phenyl) acetic acid]
< 0.5 | < 0.05 | COc1cc(CN2CC(c3ccc(-n4c(-c5cccnc5N)nc5ccc(-c6ccccc6)nc54)cc3)C2)ccc1C(=O)O [Compound 184, 4-((3-(4-(2-(2-aminopyridin-3-yl)-5-phenyl-3H-imidazo[4,5-b]pyridin-3-yl)phenyl)azetidin-1-yl)methyl)-2-methoxybenzoic acid]
< 0.5 | < 0.05 | Nc1ncccc1-c1nc2ccc(-c3ccccc3)nc2n1-c1ccc(CNC(=O)c2ccc(CCC(=O)O)cc2)cc1 [Compound 40, 3-(4-((4-(2-(2-aminopyridin-3-yl)-5-phenyl-3H-imidazo[4,5-b]pyridin-3-yl)benzyl)carbamoyl)phenyl) propanoic acid]
< 0.5 | 0.2 to 0.5 | CC(C)[C@H](c1ccc(C(=O)O)cc1)N1CC(c2ccc(-n3c(-c4cccnc4N)nc4ccc(-c5ccccc5)nc43)cc2)C1 [Compound 161]
< 0.5 | < 0.05 | Nc1ncccc1-c1nc2ccc(-c3ccccc3)nc2n1-c1ccc(NC(=O)c2ccc(C(=O)O)nc2)nc1 [Compound 151]
> 0.5 | > 0.5 | COc1ccc2nc(-c3cccnc3N)n(-c3ccc(CNC(=O)c4cccc(CC(=O)O)c4)cc3)c2c1 [Compound 104, 2-(3-((4-(2-(2-aminopyridin-3-yl)-6-methoxy-1H-benzo[d]imidazol-1-yl)benzyl)carbamoyl)phenyl) acetic acid]
< 0.5 | < 0.05 | Nc1ncccc1-c1nc2ccc(-c3ccccc3)nc2n1-c1ccc(C(=O)Nc2ccc(C(=O)O)cc2F)cc1 [Compound 180, 4-(4-(2-(2-aminopyridin-3-yl)-5-phenyl-3H-imidazo[4,5-b]pyridin-3-yl)benzamido)-3-fluorobenzoic acid]
